Experimental findings from patent publication US20120028917A1, “Use Of N-(4-((3-(2-Amino-4-Pyrimidinyl)-2-Pyridinyl)Oxy)Phenyl)-4-(4-Methyl-2-Thienyl)-1-Phthalazinamine In The Treatment Of Antimitotic Agent Resistant Cancer” (Amgen Inc., priority 2009, published 2012) are described below.

Marks after values point to notes of the source that are not given here.

Assay in all cases: Xenograft tumor growth inhibition (Example 7)
Common to all, as to assay type: in vivo, mice

Assay [1] deals with MES-SA xenograft. To be noted: Uterine, oral 15 mg/kg b.i.d. 2 consecutive days per week or 3 mg/kg b.i.d. every day, 3 weeks. The method, then: (§1) The in-vivo effect of AMG 900 on tumor growth was further evaluated in a panel of human xenografts from five different tumor types (breast, colon, lung, pancreatic, and uterine), including three MDR xenograft models. Mice bearing established tumors were orally administered AMG 900 at 15 mg/kg b.i.d. for 2 consecutive days per week for 3 weeks or at 3 mg/kg b.i.d. every day for 3 weeks. The maximum percentage of tumor growth inhibition (TGI) is reported, in Table 7 below, for each xenograft model. The percentage of TGI was calculated as the difference between the change in vehicle-treated control and AMG 900-treated tumor volumes during the study period.

Assay [2] has as its system MES-SA-Dx5 (MDR) xenograft. The conditions noted are these: Uterine, oral 15 mg/kg b.i.d. 2 consecutive days per week or 3 mg/kg b.i.d. every day, 3 weeks. How it is done: as §1
Assay [3] relates to MiaPaCa2 xenograft. To be noted: MiaPaCa2, Pancreas; oral 15 mg/kg b.i.d. 2 consecutive days per week or 3 mg/kg b.i.d. every day, 3 weeks. The method, then: as §1
The test system of assay [4] is COLO 205 xenograft. The conditions noted are these: COLO 205, Colon; oral 15 mg/kg b.i.d. 2 consecutive days per week or 3 mg/kg b.i.d. every day, 3 weeks. How it is done: as §1

Take `Cc1csc(-c2nnc(Nc3ccc(Oc4ncccc4-c4ccnc(N)n4)cc3)c3ccccc23)c1` [AMG 900, N-(4-((3-(2-amino-4-pyrimidinyl)-2-pyridinyl)oxy)phenyl)-4-(4-methyl-2-thienyl)-1-phthalazinamine]: the “Maximum TGI (%)” value in assay [1] is 87** %; in assay [2], 84%; in assay [3], 60** %; in assay [4], 73* %.
